In ChEMBL document CHEMBL1799917, “Isolation, sequencing, and structure-activity relationships of cyclotides” (J Nat Prod, 2010):
Values after ≈ are worked out from the molar mass of the structure shown. Where a SMILES comes first, the peptide text is derived from it. Bridges are numbered along the chain shown (N, C = ends).

Assays:
[1] = test system: Human immunodeficiency virus 1; assay: Antiviral activity against HIV1; assay type: functional, organism-based
CEM-SS (Homo sapiens) = assay: Cytotoxicity against human CEM-SS cells
Candida tropicalis = assay: Antimicrobial activity against Candida tropicalis ATCC 37097; assay type: functional
Proteus vulgaris = assay: Antimicrobial activity against Proteus vulgaris ATCC 49132; assay type: functional
Staphylococcus aureus = assay: Antimicrobial activity against Staphylococcus aureus ATCC 29213; assay type: functional
[2] = Hemolytic activity in human type A RBC; assay type: ADME, cell-based, Erythrocyte; details: human type A red blood cells, read-out: HD50 (the source's name)
Kluyveromyces marxianus = assay: Antimicrobial activity against Candida kefyr ATCC 37095; assay type: functional

| EC50 [1] | SMILES | IC50 (CEM-SS (Homo sapiens)) | further results |
| --- | --- | --- | --- |
| 130 nM | CC[C@H](C)[C@@H]1NC(=O)[C@H](C)NC(=O)[C@H](C)NC(=O)[C@H](CO)NC(=O)[C@H]([C@@H](C)CC)NC(=O)[C@@H]2CSSC[C@@H]3NC(=O)[C@H](C(C)C)NC(=O)[C@H](CCCCN)NC(=O)[C@H](CC(N)=O)NC(=O)[C@H](CCCCN)NC(=O)[C@@H]4CSSC[C@H](NC(=O)[C@H](CO)NC(=O)[C@H](CCC(=O)O)NC(=O)CNC(=O)[C@H](CSSC[C@H](NC(=O)CNC1=O)C(=O)N[C@@H](CO)C(=O)N4)NC(=O)[C@@H]1CCCN1C(=O)[C@H]([C@@H](C)CC)NC(=O)[C@H](C(C)C)NC(=O)CNC(=O)[C@H](CC(N)=O)NC(=O)[C@H](CCCNC(=N)N)NC(=O)[C@H](Cc1ccc(O)cc1)NC3=O)C(=O)N[C@@H](C(C)C)C(=O)N[C@@H](Cc1ccccc1)C(=O)N[C@@H]([C@@H](C)CC)C(=O)N1CCC[C@H]1C(=O)N2 [CYCLOVIOLN A] (cyclo(AAIGCSCKNKVCYRNGVIPCGESCVFIPCIS); disulfide 5-20, 7-24, 12-29) | 560 nM | – |
| – | CC[C@H](C)[C@@H]1NC(=O)[C@H](CCCCN)NC(=O)[C@H](CC(=O)O)NC(=O)[C@H](Cc2cnc[nH]2)NC(=O)[C@H](Cc2ccc(O)cc2)NC(=O)[C@@H]2CSSC[C@@H]3NC(=O)[C@@H]4CCCN4C(=O)[C@H]([C@@H](C)CC)NC(=O)[C@H](Cc4c[nH]c5ccccc45)NC(=O)[C@H](C(C)C)NC(=O)[C@@H]4CSSC[C@H](NC(=O)[C@H](CCCCN)NC(=O)[C@H](CSSC[C@H](NC(=O)[C@@H]5CCCN5C1=O)C(=O)NCC(=O)N[C@@H](CCC(=O)O)C(=O)N[C@@H](CO)C(=O)N4)NC(=O)[C@H](CC(N)=O)NC(=O)[C@H](Cc1ccccc1)NC(=O)[C@H](C(C)C)NC(=O)[C@H](CO)NC(=O)[C@H]([C@@H](C)O)NC(=O)[C@H](CC(C)C)NC3=O)C(=O)N[C@@H](CCC(=O)O)C(=O)N[C@@H](CC(N)=O)C(=O)N[C@@H](CCCCN)C(=O)N[C@@H](C(C)C)C(=O)N2 [CIRCULIN E] (cyclo(CENKVCYHDKIPCGESCVWIPCLTSVFNCK); disulfide 1-17, 6-22, 13-29) | 500 nM | – |
| – | CC[C@H](C)[C@@H]1NC(=O)[C@H](C)NC(=O)[C@H](C)NC(=O)[C@H](CO)NC(=O)[C@H]([C@@H](C)CC)NC(=O)[C@@H]2CSSC[C@@H]3NC(=O)[C@H](C(C)C)NC(=O)[C@H](CCCCN)NC(=O)[C@H](CC(N)=O)NC(=O)[C@H](CCCCN)NC(=O)[C@@H]4CSSC[C@H](NC(=O)[C@H](CO)NC(=O)[C@H](CCC(=O)O)NC(=O)CNC(=O)[C@H](CSSC[C@H](NC(=O)CNC1=O)C(=O)N[C@@H](CO)C(=O)N4)NC(=O)[C@@H]1CCCN1C(=O)[C@H]([C@@H](C)CC)NC(=O)[C@H](C)NC(=O)[C@H](CCCNC(=N)N)NC(=O)[C@H](Cc1ccc(O)cc1)NC3=O)C(=O)N[C@@H](C(C)C)C(=O)N[C@@H](Cc1c[nH]c3ccccc13)C(=O)N[C@@H]([C@@H](C)CC)C(=O)N1CCC[C@H]1C(=O)N2 [CIRCULIN F] (cyclo(AAIGCSCKNKVCYRAIPCGESCVWIPCIS); disulfide 5-18, 7-22, 12-27) | 500 nM | – |
| – | CC[C@H](C)[C@@H]1NC(=O)[C@H](CO)NC(=O)[C@H]([C@@H](C)O)NC(=O)[C@H](Cc2ccc(O)cc2)NC(=O)[C@@H]2CSSC[C@@H]3NC(=O)[C@H](C(C)C)NC(=O)[C@H](CCCCN)NC(=O)[C@H](CC(N)=O)NC(=O)[C@H](CCC(=O)O)NC(=O)[C@@H]4CSSC[C@H](NC(=O)[C@H](CO)NC(=O)[C@H](CCC(=O)O)NC(=O)CNC(=O)[C@H](CSSC[C@H](NC(=O)[C@H](CC(N)=O)NC(=O)[C@H](Cc5ccccc5)NC1=O)C(=O)N[C@@H](CCCCN)C(=O)N4)NC(=O)[C@@H]1CCCN1C(=O)[C@H]([C@@H](C)CC)NC(=O)[C@H](CCCCN)NC(=O)[C@H](CC(=O)O)NC(=O)[C@H](Cc1cnc[nH]1)NC(=O)[C@H](Cc1ccc(O)cc1)NC3=O)C(=O)N[C@@H](C(C)C)C(=O)N[C@@H](Cc1c[nH]c3ccccc13)C(=O)N[C@@H]([C@@H](C)CC)C(=O)N1CCC[C@H]1C(=O)N2 [CIRCULIN D] (cyclo(CENKVCYHDKIPCGESCVWIPCYTSIFNCK); disulfide 1-17, 6-22, 13-29) | 500 nM | – |
| 130 nM | CC(C)C[C@@H]1NC(=O)[C@H](C(C)C)NC(=O)[C@H](Cc2ccc(O)cc2)NC(=O)[C@@H]2CSSC[C@@H]3NC(=O)[C@H]([C@@H](C)O)NC(=O)[C@@H]4CSSC[C@H](NC(=O)[C@H](C)NC(=O)[C@H]([C@@H](C)O)NC(=O)CNC(=O)[C@H](CC(N)=O)NC(=O)[C@H](CCCCN)NC(=O)[C@H](Cc5ccccc5)NC(=O)[C@H](CSSC[C@H](NC(=O)[C@@H]5CCCN5C1=O)C(=O)N[C@@H](Cc1ccccc1)C(=O)N[C@@H]([C@@H](C)O)C(=O)N[C@@H](C(C)C)C(=O)NCC(=O)N4)NC(=O)[C@H](CCC(N)=O)NC(=O)[C@H](CO)NC(=O)[C@H](CO)NC(=O)[C@H]([C@@H](C)O)NC3=O)C(=O)NCC(=O)N[C@@H](CCC(=O)O)C(=O)N[C@@H](CO)C(=O)N2 [CYCLOVIOLIN B] (cyclo(ACGESCYVLPCFTVGCTCTSSQCFKNGT); disulfide 2-16, 6-18, 11-23) | 560 nM | – |
| – | CC[C@H](C)[C@@H]1NC(=O)[C@@H]2CSSC[C@@H]3NC(=O)[C@H](C(C)C)NC(=O)[C@H](CCCCN)NC(=O)[C@H](CC(N)=O)NC(=O)[C@H](CCCCN)NC(=O)[C@@H]4CSSC[C@H](NC(=O)[C@H](CO)NC(=O)[C@H](CCC(=O)O)NC(=O)CNC(=O)[C@H](CSSC[C@H](NC(=O)CNC(=O)[C@H](CC(C)C)NC(=O)[C@H](C)NC(=O)[C@H](C)NC(=O)[C@H](CO)NC1=O)C(=O)N[C@@H](CO)C(=O)N4)NC(=O)[C@@H]1CCCN1C(=O)[C@H]([C@@H](C)CC)NC(=O)CNC(=O)[C@H](CC(N)=O)NC(=O)[C@H](CCCNC(=N)N)NC(=O)[C@H](Cc1ccc(O)cc1)NC3=O)C(=O)N[C@@H](C(C)C)C(=O)N[C@@H](Cc1c[nH]c3ccccc13)C(=O)N[C@@H]([C@@H](C)CC)C(=O)N1CCC[C@H]1C(=O)N2 [CIRCULIN A] (cyclo(AALGCSCKNKVCYRNGIPCGESCVWIPCIS); disulfide 5-19, 7-23, 12-28) | 500 nM | MIC (Candida tropicalis): 19.4 µM (≈ 61.1 µg/mL); MIC (Proteus vulgaris): 54.6 µM (≈ 172 µg/mL); MIC (Staphylococcus aureus): 0.19 µM (≈ 0.599 µg/mL); HC50 [2]: 1.02 mM; MIC (Kluyveromyces marxianus): 18.6 µM (≈ 58.6 µg/mL) |
| – | CC[C@H](C)[C@@H]1NC(=O)[C@@H]2CSSC[C@@H]3NC(=O)[C@H](C(C)C)NC(=O)[C@H](CCCCN)NC(=O)[C@H](CO)NC(=O)[C@H](CCCCN)NC(=O)[C@@H]4CSSC[C@H](NC(=O)[C@H](CO)NC(=O)[C@H](CCC(=O)O)NC(=O)CNC(=O)[C@H](CSSC[C@H](NC(=O)CNC(=O)[C@H](C)NC(=O)[C@H](C(C)C)NC(=O)[C@H](CO)NC(=O)[C@H]([C@@H](C)O)NC1=O)C(=O)N[C@@H](CO)C(=O)N4)NC(=O)[C@@H]1CCCN1C(=O)[C@H]([C@@H](C)CC)NC(=O)CNC(=O)[C@H](CC(N)=O)NC(=O)[C@H](CCCNC(=N)N)NC(=O)[C@H](Cc1ccc(O)cc1)NC3=O)C(=O)N[C@@H](C(C)C)C(=O)N[C@@H](Cc1ccccc1)C(=O)N[C@@H]([C@@H](C)CC)C(=O)N1CCC[C@H]1C(=O)N2 [CIRCULIN C] (cyclo(AGCSCKSKVCYRNGIPCGESCVFIPCITSV); disulfide 3-17, 5-21, 10-26) | 500 nM | – |
| 130 nM | CC[C@H](C)[C@@H]1NC(=O)CNC(=O)[C@H](CC(N)=O)NC(=O)[C@H](CCCNC(=N)N)NC(=O)[C@H](Cc2ccc(O)cc2)NC(=O)[C@@H]2CSSC[C@@H]3NC(=O)[C@@H]4CCCN4C(=O)[C@H]([C@@H](C)CC)NC(=O)[C@H](Cc4ccccc4)NC(=O)[C@H](C(C)C)NC(=O)[C@@H]4CSSC[C@H](NC(=O)[C@H](CO)NC(=O)[C@H](CSSC[C@H](NC(=O)[C@@H]5CCCN5C1=O)C(=O)NCC(=O)N[C@@H](CCC(=O)O)C(=O)N[C@@H](CO)C(=O)N4)NC(=O)CNC(=O)[C@H](C)NC(=O)[C@H](C(C)C)NC(=O)[C@H]([C@@H](C)O)NC(=O)[C@H]([C@@H](C)O)NC(=O)[C@H](CC(C)C)NC3=O)C(=O)N[C@@H](CCCCN)C(=O)N[C@@H](CC(N)=O)C(=O)N[C@@H](CCCCN)C(=O)N[C@@H](C(C)C)C(=O)N2 [CYCLOVIOLIN C] (cyclo(AGCSCKNKVCYRNGIPCGESCVFIPCLTTV); disulfide 3-17, 5-21, 10-26) | 560 nM | – |
| 130 nM | CC[C@H](C)[C@@H]1NC(=O)[C@H](C)NC(=O)[C@H](C)NC(=O)[C@H](CO)NC(=O)[C@H]([C@@H](C)CC)NC(=O)[C@@H]2CSSC[C@@H]3NC(=O)[C@H](C(C)C)NC(=O)[C@H](CCCCN)NC(=O)[C@H](CC(N)=O)NC(=O)[C@H](CCCCN)NC(=O)[C@@H]4CSSC[C@H](NC(=O)[C@H](CO)NC(=O)[C@H](CCC(=O)O)NC(=O)CNC(=O)[C@H](CSSC[C@H](NC(=O)CNC1=O)C(=O)N[C@@H](CO)C(=O)N4)NC(=O)[C@@H]1CCCN1C(=O)[C@H](Cc1ccccc1)NC(=O)CNC(=O)[C@H](CC(N)=O)NC(=O)[C@H](CCCNC(=N)N)NC(=O)[C@H](Cc1ccc(O)cc1)NC3=O)C(=O)N[C@@H](C(C)C)C(=O)N[C@@H](Cc1ccccc1)C(=O)N[C@@H]([C@@H](C)CC)C(=O)N1CCC[C@H]1C(=O)N2 [CYCLOVIOLIN D] (cyclo(AAIGCSCKNKVCYRNGFPCGESCVFIPCIS); disulfide 5-19, 7-23, 12-28) | 560 nM | – |
